This is an account of results in patent US20230210890A1, “COMPOSITIONS AND METHODS OF TREATING COVID-19 WITH HEPARIN OR OTHER NEGATIVELY CHARGED MOLECULES” (Siemens Healthcare Diagnostics Inc., priority 2020, published 2023).

For one experiment, the system named is SARS CoV-2. The conditions noted are these: whole blood or plasma samples collected with the anticoagulant.
Experiment [1] relates to hospitalized patients with Covid-19. The conditions noted are these: WHO Solidarity Trial; cited from earlier work.
In experiment [2] the test system is adults with mild COVID-19. The note with it: cited from earlier work.

Regarding heparin sodium [sodium heparin], the “inhibition of certain SARS CoV-2 assays” value with SARS CoV-2 was “inhibited”. On to lithium heparin, for which, in the experiment with SARS CoV-2, the “inhibition of certain SARS CoV-2 assays” value is listed as “inhibited”. Regarding `CCN(CCO)CCCC(C)Nc1ccnc2cc(Cl)ccc12` (centres unmarked) [hydroxychloroquine], the “effect on hospitalized patients with Covid-19” value in experiment [1] is “little or no effect”.

With `Cc1cccc(C)c1OCC(=O)N[C@@H](Cc1ccccc1)[C@@H](O)C[C@H](Cc1ccccc1)NC(=O)[C@H](C(C)C)N1CCCNC1=O` [lopinavir], the “effect on hospitalized patients with Covid-19” value in experiment [1] was “little or no effect”. As for ivermectin, the “effect on the duration of symptoms” value in experiment [2] is recorded as “not have a significant effect”.
